Several values for one entry are separate records, joined by “and”; a condition that tells them apart may be missing. Equal entries are not always repeated.
What follows are molecules tested against T1, RORγ ligand binding domain (LBD) (Homo sapiens, UniProt P51449) (assay: TR-FRET Activity Assay (RORγ-LBD / coactivator peptide interaction)). Details: Table 2; read-out: RORγ activity in the TR-FRET Activity Assay (IC50 FRET), Group.
T1 construct: made in house; host or cells: E. coli BL-21 (BL3), vector pDEST15
T1 sequence (P51449 269-508 limits assumed): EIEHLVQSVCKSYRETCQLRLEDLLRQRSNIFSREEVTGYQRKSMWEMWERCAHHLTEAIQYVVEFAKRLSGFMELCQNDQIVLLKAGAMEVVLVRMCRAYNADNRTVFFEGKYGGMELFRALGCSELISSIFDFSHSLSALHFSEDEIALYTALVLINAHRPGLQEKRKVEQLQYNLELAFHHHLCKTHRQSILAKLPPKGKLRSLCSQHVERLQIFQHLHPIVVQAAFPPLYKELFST
Format: biochemical
Source text: This method measures the ability of putative ligands to modulate the interaction between the purified bacterial expressed RORγ ligand binding domain (LBD) and synthetic N-terminally biotinylated peptides which are derived from nuclear receptor coactivator proteins such as but not limited to SRC1 (NcoA1), SRC2 (NcoA2, TIF2), SRC3 (NcoA3), PGC1α, PGC1β, CBP, GRIP1, TRAP220, RIP140.
The ligand-binding domain (LBD) of RORγ was expressed as fusion protein with GST in […] cells using the vector pDEST15. Cells were lysed by lysozyme-treatment and sonication, and the fusion proteins purified over glutathione sepharose (Pharmacia) according to the manufacturers instructions. For screening of compounds for their influence on the RORγ-peptide interaction, the LANCE technology (Perkin Elmer) was applied. This method relies on the binding dependent energy transfer from a donor to an acceptor fluorophor attached to the binding partner of interest. For ease of handling and reduction of background from compound fluorescence LANCE technology makes use of generic fluorophore labels and time resolved detection assays were done in a final volume of 25 μL in a 384 well plate, in a Tris-based buffer system (20 mM Tris-HCl pH6.8; 60 mM KCl, 1 mM DTT; 5 mM MgCl2; 35 ng/μL BSA), containing 20-60 ng/well recombinantly expressed RORγ-LBD fused to GST, 200-600 nM N-terminally biotinylated peptide, 200 ng/well Streptavidin-xIAPC conjugate (Prozyme) and 6-10 ng/well Eu W1024—antiGST (Perkin Elmer). DMSO content of the samples was kept at 1%.
After generation of the Tris-based buffer system, the potentially RORγ modulating ligands were diluted. […] The LANCE signal was detected by a Perkin Elmer EnVision™ Multilabel Counter. The results were visualized by plotting the ratio between the emitted light at 665 nm and 615 nm. […] Ligands that promote the complex formation induce a concentration-dependent increase in time-resolved fluorescent signal.
To assess the antagonistic potential of the compounds, IC50 values were determined using a Ligand Sensing Assay based on Time-resolved Fluorescence Energy Transfer (TR-FRET) as described above. The normalised TR-FRET assay values, using the following equation: 1000*665 nm measurement value/615 nm measurement value, were transferred to the program GraphPad Prism to generate graphs and dose response curves using the following equation: • Equation: Sigmoidal dose-response (variable slope) Y=Bottom+(Top−Bottom)/(1+10^((Log EC50−X)*HillSlope))
This is identical to the “four parameter logistic equation”. The IC50 values are calculated using this equation.

Row | IC50 | Compound
1 | < 0.5 µM and > 2 µM | COc1ccccc1S(=O)(=O)N1Cc2ccccc2COC[C@H]1Cc1ccccc1 [1/2]
2 | < 0.5 µM | COc1ccc(F)cc1S(=O)(=O)N1Cc2ccccc2COCC1Cc1ccccc1 (stereo not shown) [1/5]
3 | < 0.5 µM | COc1ccc(Cl)cc1S(=O)(=O)N1Cc2ccccc2COCC1Cc1ccccc1 (stereo not shown) [1/6]
4 | < 0.5 µM | O=S(=O)(c1cccc2c1OCC2)N1Cc2ccccc2COCC1Cc1ccccc1 (stereo not shown) [1/9]
5 | < 0.5 µM | O=S(=O)(c1cccc2nonc12)N1Cc2ccccc2COCC1Cc1ccccc1 (stereo not shown) [1/10]
6 | 0.5 to 2 µM | O=S(=O)(c1c(Cl)ccc2nonc12)N1Cc2ccccc2COCC1Cc1ccccc1 (stereo not shown) [1/11]
7 | < 0.5 µM | O=S(=O)(c1cccc2nsnc12)N1Cc2ccccc2COCC1Cc1ccccc1 (stereo not shown) [1/12]
8 | 0.5 to 2 µM | Cc1ccc2nsnc2c1S(=O)(=O)N1Cc2ccccc2COCC1Cc1ccccc1 (stereo not shown) [1/13]
9 | < 0.5 µM | O=S(=O)(c1ccccc1F)N1Cc2ccccc2COCC1Cc1ccccc1 (stereo not shown) [1/14]
10 | 0.5 to 2 µM | Cc1c(F)cccc1S(=O)(=O)N1Cc2ccccc2COCC1Cc1ccccc1 (stereo not shown) [1/17]
11 | < 0.5 µM | O=S(=O)(c1cc(Cl)ccc1F)N1Cc2ccccc2COCC1Cc1ccccc1 (stereo not shown) [1/18]
12 | < 0.5 µM | N#Cc1ccc(Cl)cc1S(=O)(=O)N1Cc2ccccc2COCC1Cc1ccccc1 (stereo not shown) [1/19]
13 | 0.5 to 2 µM | Cc1ccc(Cl)cc1S(=O)(=O)N1Cc2ccccc2COCC1Cc1ccccc1 (stereo not shown) [1/20]
14 | < 0.5 µM | O=S(=O)(c1c(F)cccc1F)N1Cc2ccccc2COCC1Cc1ccccc1 (stereo not shown) [1/22]
15 | 0.5 to 2 µM | O=S(=O)(c1c(Cl)cccc1Cl)N1Cc2ccccc2COCC1Cc1ccccc1 (stereo not shown) [1/23]
16 | < 0.5 µM | O=S(=O)(c1cc(C(F)(F)F)ccc1F)N1Cc2ccccc2COCC1Cc1ccccc1 (stereo not shown) [1/24]
17 | 0.5 to 2 µM | O=S(=O)(c1ccccc1C(F)(F)F)N1Cc2ccccc2COCC1Cc1ccccc1 (stereo not shown) [1/25]
18 | > 2 µM | O=S(=O)(c1cc(Cl)sc1Cl)N1Cc2ccccc2COCC1Cc1ccccc1 (stereo not shown) [1/27]
19 | 0.5 to 2 µM | COc1cccc(S(=O)(=O)N2Cc3ccccc3COCC2Cc2ccccc2)c1 (stereo not shown) [1/28]

Row | IC50 | Compound
20 | > 2 µM | COc1ccc(S(=O)(=O)N2Cc3ccccc3COCC2Cc2ccccc2)cc1 (stereo not shown) [1/29]
21 | > 2 µM | Cc1nc(S(=O)(=O)N2Cc3ccccc3COCC2Cc2ccccc2)cn1C (stereo not shown) [1/30]
22 | > 2 µM | Cn1cnc(S(=O)(=O)N2Cc3ccccc3COCC2Cc2ccccc2)c1Cl (stereo not shown) [1/31]
23 | > 2 µM | Cc1nn(C)c(Cl)c1S(=O)(=O)N1Cc2ccccc2COCC1Cc1ccccc1 (stereo not shown) [1/32]
24 | > 2 µM | COc1ccccc1S(=O)(=O)N1Cc2cc(F)ccc2COCC1Cc1ccccc1 (stereo not shown) [1/33]
25 | > 2 µM | COc1ccc2c(c1)CN(S(=O)(=O)c1ccccc1OC)C(Cc1ccccc1)COC2 (stereo not shown) [1/34]
26 | > 2 µM | COc1ccccc1S(=O)(=O)N1Cc2ccc(F)cc2COCC1Cc1ccccc1 (stereo not shown) [1/35]
27 | 0.5 to 2 µM | COc1ccccc1S(=O)(=O)N1Cc2cccc(OC)c2COCC1Cc1ccccc1 (stereo not shown) [1/36]
28 | 0.5 to 2 µM | COc1ccccc1S(=O)(=O)N1Cc2ccccc2COCC1Cc1ccc(F)cc1 (stereo not shown) [1/37]
29 | < 0.5 µM | COc1cccc(CC2COCc3ccccc3CN2S(=O)(=O)c2cccc3cccnc23)c1 (stereo not shown) [1/38]
30 | 0.5 to 2 µM | COC(=O)c1ccccc1S(=O)(=O)N1Cc2ccccc2COCC1Cc1ccccc1 (stereo not shown) [1/39]
31 | < 0.5 µM | COc1cccc2c1COCC(Cc1ccccc1)N(S(=O)(=O)c1cccc3cccnc13)C2 (stereo not shown) [1/40]
32 | 0.5 to 2 µM | COc1ccccc1S(=O)(=O)N1Cc2ccccc2COCC1CC(C)C (stereo not shown) [1/41]
33 | < 0.5 µM | CCC(C)CC1COCc2ccccc2CN1S(=O)(=O)c1cccc2cccnc12 (stereo not shown) [1/43]
34 | > 2 µM | COc1ccccc1S(=O)(=O)N1Cc2c(Br)cccc2COCC1Cc1ccccc1 (stereo not shown) [3/1]
35 | < 0.5 µM | COc1ccccc1S(=O)(=O)N1Cc2ccccc2COCC1Cc1cccc(Br)c1 (stereo not shown) [3/2]
36 | > 2 µM | COc1ccccc1S(=O)(=O)N1Cc2c(cccc2OC)COCC1Cc1ccccc1 (stereo not shown) [5/1]
37 | > 2 µM | COc1ccccc1S(=O)(=O)N1Cc2c(C#N)cccc2COCC1Cc1ccccc1 (stereo not shown) [5/2]
38 | < 0.5 µM | COc1ccccc1S(=O)(=O)N1Cc2ccccc2COCC1Cc1cccc(C#N)c1 (stereo not shown) [5/3]

Row | IC50 | Compound
39 | > 2 µM | COc1ccccc1S(=O)(=O)N1Cc2ccccc2COCC1Cc1ccc(C#N)cc1 (stereo not shown) [5/4]
40 | > 2 µM | COc1ccccc1S(=O)(=O)N1Cc2ccccc2COCC1Cc1cccc(-c2cncnc2)c1 (stereo not shown) [5/5]
41 | > 2 µM | COc1cccc(-c2cccc(CC3COCc4ccccc4CN3S(=O)(=O)c3ccccc3OC)c2)n1 (stereo not shown) [5/6]
42 | > 2 µM | CC(C)(C)OC[C@@H]1COCc2ncccc2CN1S(=O)(=O)c1cccc2cccnc12 [6/1]
43 | < 0.5 µM | CC(C)(C)OC[C@@H]1COCc2ncccc2CN1S(=O)(=O)c1ccccc1OC(F)(F)F [6/2]
44 | 0.5 to 2 µM | CCOc1ccc(F)cc1S(=O)(=O)N1Cc2cccnc2COC[C@H]1COC(C)(C)C [6/3]
45 | > 2 µM | CC(C)(C)OC[C@@H]1COCc2ncccc2CN1S(=O)(=O)c1c(F)cccc1F [6/4]
46 | 0.5 to 2 µM | CC(C)(C)OC[C@@H]1COCc2ncccc2CN1S(=O)(=O)c1cccc2c1OCC2 [6/5]
47 | 0.5 to 2 µM | O=S(=O)(c1cccc2cccnc12)N1Cc2ccccc2COC[C@H]1COCc1ccccc1 [16/1]
48 | > 2 µM | COCCOC[C@@H]1COCc2ccccc2CN1S(=O)(=O)c1cccc2cccnc12 [16/2]
49 | > 2 µM | O=S(=O)(c1cccc2cccnc12)N1Cc2ccccc2COC[C@H]1CN1CCCCC1 [17/2]
50 | < 0.5 µM | O=S(=O)(c1cccc2cccnc12)N1Cc2ccccc2COC[C@H]1CN1CCOCC1 [17/4]
51 | 0.5 to 2 µM | O=S(=O)(c1ccccc1OC(F)(F)F)N1Cc2nncn2CCC[C@H]1Cc1ccccc1 [31/1]
52 | 0.5 to 2 µM | O=S(=O)(c1ccccc1OC(F)(F)F)N1Cc2nccn2CCC[C@H]1Cc1ccccc1 [31/2]
53 | 0.5 to 2 µM | COc1ccccc1S(=O)(=O)N1Cc2ccccc2CN(C)CC1Cc1ccccc1 (stereo not shown) [Preparative Example 2, 3-Benzyl-2-(2-methoxyphenylsulfonyl)-5-methyl-1,2,3,4,5,6-hexahydrobenzo-[f][1,4]-diazocine]
54 | > 2 µM | O=S(=O)(c1cc(F)ccc1OCCN1CCOCC1)N1Cc2ccccc2COCC1Cc1ccccc1 (stereo not shown) [Preparative Example 11]
55 | > 2 µM | COC[C@@H]1COCc2ccccc2CN1S(=O)(=O)c1cccc2cccnc12 [Preparative Example 16, (R)-4-(Methoxymethyl)-5-(quinolin-8-ylsulfonyl)-3,4,5,6-tetrahydro-1H-benzo[f][1,4]oxazocine]
56 | > 2 µM | O=S(=O)(c1cccc2cccnc12)N1Cc2ccccc2COC[C@H]1Cn1cccn1 [Preparative Example 17, (R)-4-((1H-Pyrazol-1-yl)methyl)-5-(quinolin-8-ylsulfonyl)-3,4,5,6-tetrahydro-1H-benzo[f][1,4]oxazocine]
57 | 0.5 to 2 µM | C=CC[C@@H]1COCc2ccccc2CN1S(=O)(=O)c1cccc2cccnc12 [Preparative Example 18, (R)-4-Allyl-5-(quinolin-8-ylsulfonyl)-3,4,5,6-tetrahydro-1H-benzo[f][1,4]oxazocine]

Row | Compound | IC50
58 | CC(C)(C)OC[C@@H]1COCc2ccccc2CN1S(=O)(=O)c1cccc2cccnc12 [Preparative Example 14, (S)-4-(tert-Butoxymethyl)-5-(quinolin-8-ylsulfonyl)-3,4,5,6-tetrahydro-1H-benzo[f][1,4]oxazocine] | < 0.5 µM

Source: patent US8940722B2, “Compounds for modulation of orphan nuclear receptor RAR-related orphan receptor-gamma (RORγ, NR1F3) activity and for the treatment of chronic inflammatory and autoimmune disease” (Phenex Pharmaceuticals AG, priority 2010, dated 2015)
